Measured values taken from US5456908A, “Polyamine-polyamine and polyamine-protein transport inhibitor conjugates and their use as pharmaceuticals and in research relating to polyamine transport” (priority 1994, dated 1995).
Like-named read-outs stand apart in the source and are kept apart here.

Experiments:
[1] = test system: cultured pulmonary artery smooth muscle cells; test: 14C-polyamine uptake in cultured pulmonary artery smooth muscle cells; format: cell-based, bovine
Procedure: After this 30 minute period the cell-associated radioactivity was then measured to determine the uptake of polyamine by the cell culture.
Cell associated radioactivity was then measured.

[2] = test system: DX5 human uterine sarcoma cells (MDR-positive); test: MTT cytotoxicity assay, DX5; details: for IC50: Homo sapiens
Procedure: (§4) Cytotoxicity was assessed using the MTT assay in MES-SA and DX5 uterine sarcoma cell lines after a 24 hours exposure to ascending concentrations of the putrescine polymeric conjugates (poly-PUT conjugates) or its vehicle.
(§5) Complimentary experiments were conducted to determine whether the polyamine uptake inhibitors differentially affected the cytotoxicity and cellular uptake of vinblastine in MDR-negative and MDR-positive uterine sarcoma cells. […] The MTT assay was used to quantify the IC50 for vinblastine cytotoxicity in MES-SA and DX5 cells in the presence and absence of treatment with 100 μM poly-PUT. The calculation of cytotoxicity in these experiments accounted for the lethality associated with use of the conjugate alone.

[3] = test system: MES-SA human uterine sarcoma cells
Procedure: as §4, §5

[4] = test system: DX5 human uterine sarcoma cells (MDR-positive)
Procedure: as §4, §5

[5] = test system: MES-SA human uterine sarcoma cells; test: MTT cytotoxicity assay, MES-SA
Procedure: as §4, §5

[6] = test system: non-mutant polyamine transport L1210 cells; details: DFMO treatment; Ask et al.; cited from earlier work
[7] = test system: K567 Human leukemia cells; test: Cytotoxicity, K567 leukemia cells; details: DFMO at 1 mM concentration; printed K562
[8] = test system: K562/R7 human cancer cells; test: Cellular polyamine content by HPLC, K562/R7; format: cell-based; details: DFMO 1 mM, Poly-SPM 20 μM
Procedure: (§1) To determine if the cytotoxicity and inhibition of polyamine transport evoked by the polyamine conjugates was,associated with depletion of cell polyamine contents, additional experiments were conducted which used HPLC to measure contents of PUT, SPD, and SPM in human uterine sarcoma and leukemia cells in the presence of poly-SPM, DFMO, and combined treatment with poly-SPM and DFMO. The latter combination was tested to determine if blockade of both transport and synthesis would promote greater decreases in polyamine content than either intervention alone. […] Further studies are planned to obtain further information regarding interactions between these pathways and their suitabilities as pharmacologic targets.

[9] = test system: cultured pulmonary artery smooth muscle cells treated with DFMO; test: 14C-polyamine uptake in DFMO-treated pulmonary artery smooth muscle cells; details: Bos taurus, 24 h, read-out: increase of polyamine uptake relative to control cells
Procedure: DFMO treatment consisted of the addition of 1 mM of DFMO to the cultures followed by a 24 hour incubation period.
After DFMO treatment and incubation, the respective conjugates were added in amounts ranging from about 0 to 20 μM simultaneously with 3 μM of a specific ^14 C-polyamine and the cells allowed to incubate for 30 minutes. After incubation, the content of cell associated radioactivity was determined.

[10] = test system: L1210-MGBGr leukemic cell line deficient in polyamine transport; details: polyamine synthesis blocked by DFMO; Ask et al.; cited from earlier work
[11] = test system: cultured pulmonary artery smooth muscle cells; test: Hypoxia-induced fibronectin synthesis; format: cell-based, bovine
Source text: This experiment was effected because hypoxic pulmonary hypertension is accompanied by the deposition of large quantities of fibronectin around pulmonary arteries. Therefore, there is some belief by researchers, including the present inventors, that the increased deposition of this protein may be an important cause of the sustained elevation in pulmonary arterial blood pressure. Also, hypoxia seems to cause pulmonary hypertension by a mechanism related to increased polyamine transport rather than increased de novo polyamine synthesis.

[12] = test system: MES-SA human cancer cells; test: Cellular polyamine content by HPLC, MES-SA; format: cell-based; details: DFMO 1 mM, Poly-SPM 20 μM
Procedure: as §1

[13] = test system: MES-SA human uterine sarcoma cells; test: Cellular content of MDR substrates (vinblastine, Taxol), MES-SA; format: cell-based; details: DFMO (1 mM)
DX5 human cancer cells = test: Cellular polyamine content by HPLC, DX5; format: cell-based; details: DFMO 1 mM, Poly-SPM 20 μM
Procedure: as §1

[14] = test system: DX5 human uterine sarcoma cells (MDR-positive); test: 14C-polyamine uptake, DX5; format: cell-based; details: DFMO (1 mM), 24 hours
Procedure: (§2) Additional studies were conducted to determine whether MES-SA and DX5 cell lines express a polyamine transport system, and, if so, whether this system(s) was inhibited by the poly-PUT and poly-SPM conjugate. […] In the current studies, ^14 C-SPD was added in concentrations of 3 μM and cells were incubated for 30 minutes at selected temperatures (4° and 37° C). The cells were rinsed with Hanks buffer, digested for 1 hour in 1N NaOH, and cell-associated radioactivity was determined. ^14 C-SPD uptake rate was normalized to protein content. Specific, carrier-mediated polyamine uptake was […] determined at […].
(§3) In many cells, DFMO increases polyamine transport. This is believed to be a compensatory mechanism that protects these cells from polyamine depletion. […] We therefore examined the impact of DFMO on polyamine transport rate and on vinblastine accumulation and cytotoxicity in MES-SA and DX5 cells.

[15] = test system: MES-SA human uterine sarcoma cells; test: 14C-polyamine uptake, MES-SA; format: cell-based; details: DFMO (1 mM), 24 hours
Procedure: as §2, §3

[16] = test system: R7 cells (MDR-positive variant of K567); test: Cytotoxicity, R7 leukemia cells; details: DFMO at 1 mM concentration; MDR-positive variant of K562
[17] = test system: DX5 human uterine sarcoma cells (MDR-positive); test: Cellular content of MDR substrates (vinblastine, Taxol), DX5; format: cell-based; details: DFMO (1 mM)
Procedure: Complimentary experiments were conducted to determine whether the polyamine uptake inhibitors differentially affected the cytotoxicity and cellular uptake of vinblastine in MDR-negative and MDR-positive uterine sarcoma cells.

K562 human cancer cells = test: Cellular polyamine content by HPLC, K562; format: cell-based; details: DFMO 1 mM, Poly-SPM 20 μM
Procedure: as §1

[18] = conjugate 0-20 μM with 3 μM 14C-polyamine, 30 minutes

For COc1ccc(CCN(C)CCCC(C#N)(c2ccc(OC)c(OC)c2)C(C)C)cc1OC (stereo not drawn) [verapamil], the “suppression of polyamine transport” value ([1]; agents known to inhibit the MDR, data not shown, 30 min) was 50-75%.

CC[C@]1(O)C[C@@H]2CN(CCc3c([nH]c4ccccc34)[C@@](C(=O)OC)(c3cc4c(cc3OC)N(C)[C@H]3[C@@](O)(C(=O)OC)[C@H](OC(C)=O)[C@]5(CC)C=CCN6CC[C@]43[C@@H]65)C2)C1 [Vinblastine] gave an IC50 ([2]; read-out: IC50, vinblastine cytotoxicity) of 600 nM, an IC50 ([2]; read-out: IC50 for vinblastine) of 500 nM and an IC50 [3] of 7 nM. It also gave an IC50 [4] of 116 nM and an IC50 ([5]; Homo sapiens, MES-SA, read-out: IC50, vinblastine cytotoxicity) of 5 nM.

For NCCCC(N)(C(=O)O)C(F)F (stereo not drawn) [DFMO, α-difluoro-methylornithine], the “increase in survival time” value [6] is listed as “two”, the toxicity to cells [7] is listed as “not toxic” and the toxicity to cells ([2]; DFMO at 1 mM concentration, MDR-positive variant of MES-SA) is listed as “not toxic”. The “effect of DFMO treatment on sensitivity to vinblastine” value ([2]; DFMO treatment, vinblastine concentrations up to 5 μM) was “complete resistance”, the “Cellular Polyamine Content, SPD” value [8] was 15809 pmoles/mg protein and the “Cellular Polyamine Content, SPM” value [8] was 15083 pmoles/mg protein. For the same molecule, the activation at 1000 µM [9] was roughly 350%, the cure rate [10] was 33% and the “Fibronectin Synthesis” value ([11]; Hypoxic) was 0.09 OD/mg protein. The “Fibronectin Synthesis” value ([11]; Normoxic) was 0.07 OD/mg protein, the “Cellular Polyamine Content, SPD” value [12] was 6100 pmoles/mg protein and the “Cellular Polyamine Content, SPM” value [12] was 8824 pmoles/mg protein. The “3H-Vinblastine Content” value [13] was 840 ± 28 pmoles/mg protein, the “Cellular Polyamine Content, SPD” value (DX5 human cancer cells) was 4191 pmoles/mg protein and the “Cellular Polyamine Content, SPM” value (DX5 human cancer cells) was 6831 pmoles/mg protein. For the same molecule, the “14C-Polyamine uptake, PUT” value [14] was 1.1 ± 0.04 pmoles/min/mg protein, the “14C-Polyamine uptake, SPD” value [14] was 1.6 ± .08 pmoles/min/mg protein and the “14C-Polyamine uptake, PUT” value [15] was 0.67 ± 0.01 pmoles/min/mg protein. The “14C-Polyamine uptake, SPD” value [15] was 7.3 ± .06 pmoles/min/mg protein, the toxicity to cells [16] was “not toxic” and the “3H-Vinblastine Content” value [17] was 195 ± 8 pmoles/mg protein. The “Cellular Polyamine Content, SPD” value (K562 human cancer cells) was 15791 pmoles/mg protein, the “Cellular Polyamine Content, SPM” value (K562 human cancer cells) was 17024 pmoles/mg protein and the toxicity to cells ([5]; DFMO at 1 mM concentration) was “not toxic”. The “effect of DFMO treatment on the IC50 value for vinblastine” value ([5]; DFMO treatment) was “failed to affect”.

In the case of “Spd-BSA: conjugate between bovine serum albumin and spermidine using glutaraldehyde as a coupling agent”, the “uptake of 14C-putrescine” value [1, 18] is reported as “inhibited” and the “uptake of 14C-spermidine” value [1, 18] is reported as “inhibited”.
